Test results published in patent publication US20050025769A1, “Method of suppressing ongoing acute allograft rejection” (Fujisawa Pharmaceutical Company, Ltd., priority 1999, published 2005).

How the values were obtained:
[1] = tested on: CD4+, CD8+, NKR-P1A, and ED2 positive cells; test: Immunohistological examination of cell infiltration into heart allograft tissue; assay type: in vivo, rat; settings: CsA 10 mg/kg/day, tacrolimus 3.2 mg/kg/day orally from day 5
From the text: The presence of CD4+, CD8+, NKR-P1A, and ED2 positive cells was examined on day 5, 7 and 10 after transplantation by immunohistological examination of graft tissue immunostained with specific antibodies to various immune cell populations. For immunohistology, 4 μm frozen sections of heart tissue were cut, fixed with acetone and exposed to monoclonal antibodies (Pharmingen, San Diego, Calif.) against markers for CD4+ (helper T cells), CD8^+ (cytotoxic T cells), NKR-P1A (natural killer cells), and ED2 (macrophage cells) positive cells. Then the sections were incubated with peroxidase-conjugated anti-mouse IgG antibodies. The bound peroxidase was detected using 3-amino-9-ethylcarbazole. The results were scored quantitatively. In each tissue section, three random representative fields were counted by visual microscope (×40) to determine the average cell number per tissue.

[2] = tested on: renal allografts (BN to LEW); test: Rescue of ongoing renal allograft rejection (drug from day 2 or day 4 for 13 days); assay type: in vivo, rat; settings: untreated allograft controls rejected at day 8
Procedure: Male LEW rats weighing 250-350 g and male BN rats weighing 150-250 g were kept under specific pathogen-free conditions in the animal facility at Fujisawa Pharmaceutical Co., Ltd., Osaka, Japan. […] The donor ureter was directly implanted into the recipient bladder over a fine polyethylene internal stent. All recipients were bilaterally nephrectomized at the time of transplantation. The graft ischemic time was approximately 30 minutes. Survival of the kidney transplant was measured as time of rat survival. Graft rejection was confirmed by histological examination of kidney tissue from recipients with the observation of interstitial hemorrhage, tubular necrosis, venous endotheliatitis and diffuse lymphoplasmacytic infiltration indicating graft rejection. […] Control isograft and allograft recipients received either distilled water, olive oil, or placebo after transplantation.

liver transplantation = settings: clinical organ transplantation, estimated; cited from earlier work
[3] = tested on: heart allografts, ongoing graft rejection; test: Rescue of ongoing heart allograft rejection (drug from day 5 for 10 days); assay type: in vivo, rat; settings: 3.2 mg/kg/day on days 5-14 post-transplantation
From the text: (§1) Inbred male Lewis rats (LEW) (RT1^1), weighing 200-250 g, were used as heart transplantation recipients. Inbred male LEW and inbred male Brown Norway (BN) (RT1^a), weighing 150-200 g, were used as isograft and allograft donor rats, respectively. […] Rejection of heart grafts was defined as the complete cessation of impulse and was confirmed visually after laparatomy. […] Control isograft and allograft recipients (5 rats each) received no immunosuppressant drugs after transplantation.
Therefore, drug administration was halted from day 0-day 4 after heart transplantation in order to initiate the transplantation process.

[4] = tested on: T-cell-dependent antibody production, graft vs. host reactivity, delayed-type sensitivity reactions; settings: suppressing T-cell-dependent antibody production; cited from earlier work
IL2 and IL4 protein = test: ELISA assay of IL2 and IL4 proteins in serum peripheral lymphocytes of heart allograft recipients; assay type: in vivo, rat; settings: day 7 post-transplantation; optimal doses from day 5
Procedure: (§2) The transplantation method described in Example 5 was used. […] The levels of IL2, IL4 and IL10 proteins in serum peripheral lymphocytes were measured at day 7 post-transplantation by ELISA assay.

IL10 protein = test: ELISA assay of IL10 protein in serum peripheral lymphocytes of heart allograft recipients; assay type: in vivo, rat; settings: day 7 post-transplantation, compared with the allograft control; optimal doses from day 5
Procedure: as §2

[5] = tested on: heart allografts (BN to LEW); test: Rat heart transplantation, primary therapy to prevent acute allograft rejection (drug day 0 to day 10); assay type: in vivo; settings: for median survival time (MST) of heart allografts: day 0 to day 10 after transplantation, allograft control 6 days
From the text: as §1

IL10 mRNA = test: RT-PCR for IL10 mRNA in heart graft tissues; assay type: in vivo, rat; settings: days 7 and 10; CsA 10 mg/kg/day, tacrolimus 3.2 mg/kg/day from day 5
Procedure: At day 5, 7 and 10 after transplantation, total RNA was extracted from heart graft tissues and tested by reverse transcriptase-polymerase chain reaction (RT-PCR) for cytokine mRNAs. Total RNA was extracted from transplanted heart tissue by TRIZOL (GIBCO BRL, Gaithersburg, Md.). RT-PCR was performed by reverse transcribing total RNA into cDNA using random hexamers (GIBCO BRL, Gaithersburg, Md.). The reverse-transcribed material was added to the PCR mixture with sense and anti-sense primers of IFNγ, IL2, IL4, IL10, IL1β, IL6, TNFα, TGFβ, Granzyme, Perforin or G3PDH and Taq DNA polymerase (Boehringer Mann heim GmbH, Mannheim, Germany). Amplification was performed with optimized cycles for each cytokine or G3PDH by ThermalCycler (Perkin-Elmer, Branchburg, N.J.). PCR product was applied to 2.3% agarose gel, resolved by electrophoresis, and visualized by ethidium bromide staining. The intensity of the gene-specific bands was obtained by the Gel Doc 1000 documentation system (BIO-RAD Laboratories, Hercules, Calif.). G3PDH mRNA was amplified as an internal control for RT-PCR.

allograft survival = settings: optimal doses administered several days after transplantation, after allograft rejection has begun; cited from earlier work

C=CC[C@@H]1/C=C(\C)C[C@H](C)C[C@H](OC)[C@H]2O[C@@](O)(C(=O)C(=O)N3CCCC[C@H]3C(=O)O[C@H](/C(C)=C/[C@@H]3CC[C@@H](O)[C@H](OC)C3)[C@H](C)[C@@H](O)CC1=O)[C@H](C)C[C@@H]2OC [tacrolimus, Tacrolimus]
suppression of all of the cell infiltration into the local graft tissues ([1]; day 7): no significant suppression
blocking CD8+ and NKR-P1A cell infiltration ([1]; day 10): significantly blocked
blocking the CD4+ and ED2 cell filtration ([1]; day 10): partially blocking
recipient rats that survived more than 50 days ([2]; 3.2 mg/kg/day from day 2-14 after grafting): all of 5
recipient rats that survived more than 50 days ([2]; 3.2 mg/kg/day from day 4-16 after grafting): 3 of 5
potency relative to CsA in liver transplantation (liver transplantation): three to ten orders of magnitude more potent
extension of the survival of the graft ([3]; versus allograft control): about 13 days
MST of heart allografts ([3]; allograft control 6 days): 19 days
potency relative to CsA in vivo [4]: 10 times
suppression of the expression of IL2 and IL4 protein (IL2 and IL4 protein): equally
suppression of IL10 protein expression (IL10 protein): 73%
median survival time (MST) of heart allografts ([5]; 1.0 mg/kg/day orally): 12 days
median survival time (MST) of heart allografts ([5]; 3.2 mg/kg/day orally): 19 days
median survival time (MST) of heart allografts ([5]; 10 mg/kg/day orally): 21 days
optimal dose ([5]; primary therapy, oral, day 0 to day 10, based on MST): 3.2 mg/kg/day
suppression of IL10 mRNA expression (IL10 mRNA): more than CsA
effect on allograft survival (allograft survival): significantly increase allograft survival
